Columns and labels:
[1] = solubility in aqueous media / water; assay type: physicochemical; conditions: even in the presence of surfactants
[2] = in vivo

For `COc1cc(N2CCN(C3CCN(c4ccc(F)c5cccnc45)CC3)CC2)c2ncccc2c1.O=C(O)CCC(=O)O.O=C(O)CCC(=O)O.O=C(O)CCC(=O)O` [Form A, 6-methoxy-8-[4-(1-(5-fluoro)-quinolin-8-yl-piperidin-4-yl)-piperazin-1-yl]-quinoline trisuccinate], the hygroscopicity (believed) was “substantially non-hygroscopic” and the “conversion of crystalline form in water” value (upon dispersion in water for a few minutes in ambient conditions) was “convert to Form D”.

In the case of `COc1cc(N2CCN(C3CCN(c4ccc(F)c5cccnc45)CC3)CC2)c2ncccc2c1.O=C(O)CCC(=O)O.O=C(O)CCC(=O)O.O=C(O)CCC(=O)O` [Form B, 6-methoxy-8-[4-(1-(5-fluoro)-quinolin-8-yl-piperidin-4-yl)-piperazin-1-yl]-quinoline trisuccinate], the “conversion of crystalline form in THF/heptane slurry” value (slurried for two hours in a mixture of THF and heptane in an ice/water bath) is reported as “convert to Form A”.

Work on `COc1cc(N2CCN(C3CCN(c4ccc(F)c5cccnc45)CC3)CC2)c2ncccc2c1` [free base, 6-methoxy-8-[4-(1-(5-fluoro)-quinolin-8-yl-piperidin-4-yl)-piperazin-1-yl]-quinoline] yielded a solubility [1] of ~0.4 µg/mL.

In the case of `COc1cc(N2CCN(C3CCN(c4ccc(F)c5cccnc45)CC3)CC2)c2ncccc2c1.O=C(O)CCC(=O)O.O=C(O)CCC(=O)O.O=C(O)CCC(=O)O` [trisuccinate salt, 6-methoxy-8-[4-(1-(5-fluoro)-quinolin-8-yl-piperidin-4-yl)-piperazin-1-yl]-quinoline trisuccinate], the bioavailability [2] is reported as “improved bioavailability over the free base”.

From patent US20080045510A1, “Succinate salts of 6-methoxy-8-[4-(1-(5-fluoro)-quinolin-8-yl-piperidin-4-yl)-piperazin-1-yl]-quinoline and crystalline forms thereof” (Wyeth, priority 2006, published 2008)
